The values below come from US10125135B2, “Chemical compounds” (AstraZeneca AB, priority 2016, dated 2018).

In brackets after ≈: the same amount, converted by molar mass.

In data set [1] the target is ERα receptor in MCF-7 human ductal carcinoma breast cell line (Homo sapiens (Human), UniProt P03372). Briefly: MCF-7 ER down regulation assay (immuno-fluorescence). Type of data set: cell-based. To be noted: MCF-7 cells, 18-22 hours incubation; read-out: ER down regulation IC50 value.
Data set [2] concerns the target estrogen receptor (ERα) in CAMA-1 human breast cancer cell line (Homo sapiens (Human), UniProt P03372). The data set is described as follows: Western blotting assay, CAMA-1 cells. Type of data set: cell-based. To be noted: 100 nM compound, 48 h; normalised to vehicle (0%) and 100 nM fulvestrant (100%). How it is done:
(§1) The ability of compounds to down-regulate estrogen receptor (ER) was assessed by western blotting using human breast cancer cell lines (MCF-7 and CAMA-1). Cells were plated into 12-well tissue culture-treated plates at 0.5×10^6/well in phenol red-free RPMI containing 2 mM L-glutamine and 5% (v/v) charcoal treated foetal calf serum (F6765, Sigma). Cells were incubated with compounds (100 nM) or vehicle control (0.1% DMSO) for 48 h at 37° C., 5% CO2 before washing once with PBS and lysing with 80 μl lysis buffer (25 mM Tris/HCl, 3 mM EDTA, 3 mM EGTA, 50 mM NaF, 2 mM sodium orthovanadate, 0.27 M sucrose, 10 mM β-glycerophosphate, 5 mM sodium pyrophosphate, 0.5% TritonX-100, pH 6.8) on ice.
(§2) Cells were scraped, sonicated and centrifuged prior to performing a protein assay (DC Bio-Rad Protein kit, 500-0116) and making samples to a protein concentration of 1-2 mg/m1 in lysis buffer containing 1× LDS Sample Buffer (NP0007, Invitrogen) and 1× NuPAGE sample reducing agent (NP0009, Invitrogen). Samples were boiled for 10 min at 95° C. and then frozen at −20° C. until ready for use.
(§3) 10-20 μg protein was loaded onto 26-well Criterion gels (BioRad 345-0034). Gels were run at 125 V for 1 hr 25 min in running buffer (24 mM Tris Base Sigma, 192 mM Glycine, 3.5 mM SDS, made up in distilled water). Gels were then transferred at 30V for 2 hr in transfer buffer (25 mM Tris, 192 mM Glycine, 20% (v/v) methanol, pH 8.3, made up in distilled water) onto nitrocellulose membrane. The blot was stained with Ponceau S (P7170, Sigma) and cut according to appropriate molecular weight markers.
(§4) Membranes were blocked for 1 hour at room temp in 5% Marvel (w/v) in phosphate-buffered saline containing 0.05% Tween™ 20 (PBS/Tween). Blots were then incubated with anti-ERα (SP1) rabbit monoclonal antibody (Thermofisher) diluted 1:1000 at 4° C. overnight (with gentle shaking) followed by several washes with PBS/Tween. Secondary anti-rabbit HRP antibody (7074, CST) diluted 1:2000 dilution was incubated for 2 h at room temperature (with gentle shaking) followed by several washes with PBS/Tween. All antibodies were made up in 5% Marvel (w/v) in PBS/Tween.
(§5) The immunoblots were developed using Pierce WestDura chemiluminescent reagents (Thermo Scientific 34076) and developed/quantified on the G-box using Syngene software. Down-regulation of the ERα receptor was normalised to the vehicle control (0% down-regulation) and the 100 nM fulvestrant control (100% down-regulation) run within the same gel.
For orientation: A western blot detects proteins with antibodies after separation by electrophoresis.

The target in data set [3] is estrogen receptor (ERα) in MCF-7 human breast cancer cell line (Homo sapiens (Human), UniProt P03372). The data set is described as follows: Western blotting assay, MCF-7 cells. To be noted: 100 nM compound, 48 h; normalised to vehicle (0%) and 100 nM fulvestrant (100%). Type of data set: cell-based. How it is done: as §1, §2, §3, §4, §5
estrogen receptor (ERα) in MCF-7 human breast cancer cell line, sequence (P03372 whole entry): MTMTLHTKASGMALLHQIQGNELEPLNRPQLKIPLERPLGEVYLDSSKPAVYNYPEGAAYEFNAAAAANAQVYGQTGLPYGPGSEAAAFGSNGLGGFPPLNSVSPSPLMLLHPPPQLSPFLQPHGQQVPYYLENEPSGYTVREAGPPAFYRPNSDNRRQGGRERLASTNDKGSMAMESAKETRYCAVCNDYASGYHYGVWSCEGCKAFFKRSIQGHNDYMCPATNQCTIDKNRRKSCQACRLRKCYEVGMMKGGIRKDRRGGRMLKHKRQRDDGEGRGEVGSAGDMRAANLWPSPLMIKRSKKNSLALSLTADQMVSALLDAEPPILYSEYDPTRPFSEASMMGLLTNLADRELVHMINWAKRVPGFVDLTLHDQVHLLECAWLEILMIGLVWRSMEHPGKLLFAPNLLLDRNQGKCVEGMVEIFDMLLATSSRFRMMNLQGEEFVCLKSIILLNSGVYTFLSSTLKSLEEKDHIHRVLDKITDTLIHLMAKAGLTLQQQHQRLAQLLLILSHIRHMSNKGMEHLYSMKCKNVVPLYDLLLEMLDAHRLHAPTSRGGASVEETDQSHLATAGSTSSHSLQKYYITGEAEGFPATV
Data set [4] in a line: logD shake flask, 1-octanol/aqueous buffer. Type of data set: physicochemical. Conditions: pH 7.4. The text has this:
The lipophilicity of a drug is an important physical property which may influence many biological and metabolic properties of a compound. The distribution coefficient between 1-octanol and aqueous buffer, Log DO/W, at pH 7.4, is the most commonly used measurement of the lipophilicity of a compound. The current method for measurement of Log DO/W is based on the traditional shake flask technique, but with the modification of measuring compounds in mixtures of ten at a time using UPLC with quantitative mass spectrometry (MS) as a method to measure the relative octanol and aqueous concentrations. […] An additional QC sample Caffeine, with low Log D, are used and randomly placed in all runs. The method has been thoroughly validated against the previous shake flask methodologies.

A short description of data set [5]: Thermodynamic solubility, shake-flask. Type of data set: physicochemical. To be noted: thermodynamic from solid; aqueous phosphate buffer pH 7.4, 24 hours at 25° C. How it is done: The thermodynamic solubility of a research compound is measured under standard conditions. It is a shake-flask approach that uses 10 mM DMSO solutions which are supplied from the Compound Managements liquid store and is a high throughput method. The dried compounds are equilibrated in an aqueous phosphate buffer (pH 7.4) for 24 hours at 25° C., the portion with the dissolved compound is then separated from the remains. The solutions are analyzed and quantified using UPLC/MS/MS, QC-samples are incorporated in each assay-run to ensure the quality of the assay.

A short description of data set [6]: Human plasma protein binding, equilibrium dialysis (RED). In kind it is in vitro ADME. To be noted: dialysis for 18 hours. How it is done:
Human Plasma Protein Binding
The automated equilibrium dialysis assay in human plasma uses the RED (Rapid Equilibrium Dialysis) Device and sample handling. The assay generally runs over two to three days including delivery of results. After dialysis for 18 hours, plasma and buffer samples are prepared for analysis by liquid chromatography and mass spectrometry. Samples are generally tested in singlicates and quantified by LC/MSMS by using a 7-point calibration curve in plasma. The compounds are pooled together in plasma pools up to 10 compounds. Three reference compounds are used in each run, Propranolol, Metoprolol and Warfarin. Warfarin is used as a control in each pool and Propranolol and Metoprolol are placed randomly in each run. An in-house Excel macro is used for preparation of files for the robot and the mass spectrometer and also used for the calculations of fraction unbound (fu %) in plasma.
Background: In equilibrium dialysis only unbound substance equilibrates across the membrane.

In a further data set the target is ERα receptor (Homo sapiens (Human), UniProt P03372). To be noted: 500mg monthly dose; cited from earlier work.
ERα receptor, sequence (P03372 whole entry): as above

ERα receptor in MCF-7 human ductal carcinoma breast cell line, sequence (P03372 whole entry): as above
estrogen receptor (ERα) in CAMA-1 human breast cancer cell line, sequence (P03372 whole entry): as above

As to `COCC(F)(F)CN1[C@H](c2ccc(OCCN3CC(CF)C3)cn2)c2ccc3[nH]ncc3c2C[C@H]1C` [Example 10, (6S,8R)-7-(2,2-difluoro-3-methoxypropyl)-6-(5-(2-(3-(fluoromethyl)azetidin-1-yl)ethoxy)pyridin-2-yl)-8-methyl-6,7,8,9-tetrahydro-3H-pyrazolo[4,3-f]isoquinoline], the DC50 in data set [1] was 0.51 nM. In addition, the “CAMA1 Western % ER deg vs Fv” value in data set [2] is reported as 66%. For the same compound, the “MCF7 Western % ER deg vs Fv” value in data set [3] came out at 87%. The logD (in general, lipophilicity at a set pH, counting ionised and neutral species) in data set [4] is 2.4. Moreover, the solubility (commonly the dissolved amount per volume that the medium holds) at 24 h in data set [5] turned out to be 811 µM (≈ 408 µg/mL). Also, in data set [6], the “Human plasma protein binding (% free)” value is given as 27 % free.
As to `C[C@@H]1Cc2c(ccc3[nH]ncc23)[C@@H](c2ncc(OCCN3CC(CF)C3)cc2F)N1CC(F)(F)F` [Example 50, (6S,8R)-6-(3-fluoro-5-(2-(3-(fluoromethyl)azetidin-1-yl)ethoxy)pyridin-2-yl)-8-methyl-7-(2,2,2-trifluoroethyl)-6,7,8,9-tetrahydro-3H-pyrazolo[4,3-f]isoquinoline], the DC50 in data set [1] came out at 0.5 nM. In data set [4], this compound came in with a logD of 2.8. This compound also gave a solubility at 24 h in data set [5] of 1000 µM (≈ 495 µg/mL). In addition, the “Human plasma protein binding (% free)” value in data set [6] came to 20 % free.
As for `COc1cc(OCCN2CC(CF)C2)ccc1[C@@H]1c2ccc3[nH]ncc3c2C[C@@H](C)N1CC(F)F` [Example 7, (6S,8R)-7-(2,2-difluoroethyl)-6-(4-(2-(3-(fluoromethyl)azetidin-1-yl)ethoxy)-2-methoxyphenyl)-8-methyl-6,7,8,9-tetrahydro-3H-pyrazolo[4,3-f]isoquinoline], the DC50 in data set [1] stood at 0.085 nM. Besides, the “CAMA1 Western % ER deg vs Fv” value in data set [2] was 95%. Moreover, the “MCF7 Western % ER deg vs Fv” value in data set [3] is given as 100%. In addition, the logD in data set [4] was found to be 3.4. The compound further showed a solubility at 24 h in data set [5] of 364 µM (≈ 178 µg/mL). For the same compound, the “Human plasma protein binding (% free)” value in data set [6] is 11 % free.
For the compound `C[C@]12CC[C@@H]3c4ccc(O)cc4C[C@@H](CCCCCCCCC[S+]([O-])CCCC(F)(F)C(F)(F)F)[C@H]3[C@@H]1CC[C@@H]2O` (some centres unmarked) [Fulvestrant, fulvestrant], at ERα receptor, the “turnover of the receptor in patient samples” value is given as “less than 50%”.
